From the NIST ThermoML archive (doi:10.1016/j.fluid.2013.06.021)
± gives the expanded uncertainty stated by the source.

Conditions: 298.15 K, 101.33 kPa, Liquid; for viscosity: Capillary tube (Ostwald / Ubbelohde) method; for speed of sound: Sing-around technique in a fixed-path interferometer; for mass density: Vibrating tube method

| SMILES | viscosity | speed of sound | mass density |
| --- | --- | --- | --- |
| CCCCOCCO [2-butoxyethan-1-ol] | 2.885 ± 0.12 mPa·s | 1306 ± 0.7 m/s | 896.312 ± 0.083 kg/m3 |
| CCCCO [butan-1-ol] | 2.625 ± 0.12 mPa·s | 1240.6 ± 0.71 m/s | 805.986 ± 0.12 kg/m3 |
| CCC(C)O (stereo not given) [butan-2-ol] | 3.075 ± 0.12 mPa·s | 1213.3 ± 0.81 m/s | 802.563 ± 0.14 kg/m3 |
| CCCO [propan-1-ol] | 1.984 ± 0.12 mPa·s | 1207 ± 0.8 m/s | 800.13 ± 0.14 kg/m3 |
| CC(C)O [propan-2-ol] | 2.111 ± 0.12 mPa·s | 1140.6 ± 0.64 m/s | 781.588 ± 0.12 kg/m3 |
